Series [1] deals with T1, CYP2D6 (Homo sapiens, UniProt P10635).
Series [2] concerns the target T1, CYP2D6. Put plainly: in vitro. The settings on record: both, microsomes.
Series [3] is described as follows: in vitro. The settings on record: human, plasma, pH 7.4.
Method: (§3) The supernatant was removed and incubated at 37 °C for at least 10 min before use. The pH of each matrix was checked and adjusted to pH 7.4 using 10% phosphoric acid or 1 N sodium hydroxide as necessary.
(§4) Test and control article stock solutions were spiked (1.5 µL) into matrix (0.749 mL) to a final assay concentration of 2 µM and mixed. […] These tubes were sealed and incubated at 37 °C with shaking.
(§5) The quenched samples were mixed briefly by vortexing and stored in a −20 °C freezer.
(§6) Sample plates were stored refrigerated until analysis.
(§7) The column was set to a temperature of 55 °C. […] The instrument was equipped with an electrospray ionization source (500 °C) operated in positive-ion mode.
(§8) Peak area ratios for IS-normalized test article and control article counts were used to calculate the percent remaining relative to the time zero (T0) value. As appropriate, results were plotted and further analyzed to calculate half-life (T1/2) values.
(§9) Mean peak ratios were used to calculate the percent remaining relative to the T0 value: % Remaining at Timex = (mean peak area ratio Tx/mean peak ratio T0) × 100.
Series [4] in a line: in vitro. To be noted: Sprague-Dawley, rat, plasma, pH 7.4.
Method: as §3, §4, §5, §6, §7, §8, §9
Series [5] can be described thus: in vitro. To be noted: beagle, dog, plasma, pH 7.4.
Method: as §3, §4, §5, §6, §7, §8, §9
Series [6] can be described thus: in vitro. The settings on record: cynomolgus monkey, plasma, pH 7.4.
Method: as §3, §4, §5, §6, §7, §8, §9
Series [7] can be described thus: in vitro. To be noted: CD-1, mouse, plasma, pH 7.4.
Method: as §3, §4, §5, §6, §7, §8, §9
Series [8] relates to CYP2B6. Put plainly: CYP2B6 induction (enzyme activity) in single-donor human hepatocytes. The settings on record: 1000 µM (positive control). Here is the method: The transport medium was replaced with 200 μL of warm (37 °C) incubation medium (InVitroGRO HI, BioIVT Catalog No. Z99009) and the plate was placed in a humidified 5% carbon dioxide incubator at 37 °C for 24 h.
In addition, test article vehicle (PBS) was added to warm (37°C) InVitroGRO HI Medium in a 5:95 (v:v) ratio. […] The plates were removed from the incubator and the hepatocytes were prepared for the induction assay by replacing the cell culture medium with medium containing either the test article, a control inducer, or vehicle control (200 µL per well). The hepatocyte plates were returned to the cell culture incubator and incubated for 24 h.
On Day 3, induction was repeated following the same steps as described above for the previous day, and plates were returned to the cell culture incubator for an additional 24 h.
After aliquots were taken to measure test article stability, all the remaining medium from each well in the hepatocyte plate was removed, all wells were washed once using 200 μL of blank assay buffer, and then 100 μL of the 1000-fold diluted substrate solutions were added to the appropriate wells. The assay plate was returned to the humidified 5% carbon dioxide incubator at 37 °C for 1 h incubation.
At the end of the incubation time, 100 μL of mRNA lysis buffer was added to each well to stop the reaction. Fifty microliters of this reaction mixture were transferred into a new plate and quenched with 200 μL of ice-cold acetonitrile containing a CYP-specific stable labeled internal standard (250 ng/mL acetaminophen-d4, 250 ng/mL hydroxybupropion-d6, or 250 ng/mL hydroxytestosterone-d3). After removal of the aliquots from the plate for enzyme activity determination, the assay plates were sealed and stored in a −70 °C freezer until use for RT-PCR, mRNA analysis.
For the induction assay samples, an aliquot (50 µL) of the supernatant was transferred to a new plate and diluted with 100 µL Milli-Q water. For the test article stability samples, an aliquot (50 µL) of the supernatant was transferred to a new plate and diluted with 60 µL 0.1% formic acid in Milli-Q water. These samples for the enzyme activity assay and article stability test were refrigerated for storage until analysis. […]
HM1010: Induction Potential of Cytochrome P450 Enzymes
(CYP1A2, CYP2B6 and CYP3A4) Using Human Cryopreserved Hepatocytes
Testing Facility Study No.
The purpose of this in-vitro study was to determine the induction potential of HM1010 on human
cytochrome P450 (CYP) isoenzyme (1A2, 2B6 and 3A4) activity. The study design is
Matrix: Inducible cryopreserved human hepatocytes three single-donor lots
Assay Buffer: InVitroGRO KHB
Substrates: Phenacetin (1A2), Bu propion (2B6), and Testosterone (3A4)
Assay conditions: 48 hours at 37°C in humidified 5% carbon dioxide incubator
Analysis: LC-MS/MS (enzyme activity) and mRNA analysis

Series [9] deals with CYP2B6. Put plainly: CYP2B6 induction (mRNA expression) in single-donor human hepatocytes. Format: in vitro ADME. The settings on record: 1000 µM (control). Here is the method:
RNA isolation and quantification: E-Z 96 Total RNA Kit (Omega Bio-tek, Catalog No. R1034-02) was used for RNA isolation and Quant-iT RNA assay kit (ThermoFisher, Catalog No. Q33140) was used for RNA quantification. The plates were removed from a −80 °C freezer and equilibrated to room temperature. RNA was extracted using the manufacturer’s recommended protocol. Eighty-one microliters of 100% ethanol were added into each well containing 150 µL of lysed sample to make a final ethanol concentration at 35%.
cDNA generation: For cDNA generation, a High-Capacity cDNA Reverse Transcription Kit (Applied Biosystems, Catalog No. 4319983) and QuantStudio 3 PCR system (Applied Biosystems) were used. In this step, 2X Reverse Transcription Master Mix was prepared using the contents of the kit. Then, 10 µL of total RNA was added to 10 µL of 2X Reverse Transcription Master Mix in a microplate and the plate was sealed. This plate was then run in a thermocycler to generate cDNA.
Real time PCR: SsoAdvanced Universal SYBR® Green Supermix (BIO-RAD, Catalog No. 172-5270) and the QuantStudio 3 Real-Time PCR system (Applied Biosystems) were used to perform real-time PCR on the generated cDNA. In this step, a PCR mix was prepared using PCR Supermix, SYBR® primers for the targeted genes, and nuclease-free water. Two microliters of ten-fold diluted cDNA samples (5 µL of cDNA into 45 μL of nuclease-free water) were added to 8 µL of PCR Mix in a microplate and sealed. This plate was then run through the Real-Time PCR system to generate the mRNA expression data.
• Human GAPDH • F: […] • R: […] • Human CYP1A2 • Unique Assay ID: qHsaCID0015160 • Chromosome Location: 15:75045562-75047256 • Human CYP2B6 • F: […] • R: […] • Human CYP3A4 • F: […] • R: […]

The nature of series [10]: Stability in simulated gastric fluid (SGF). The format is in vitro ADME. To be noted: SGF pH 1.3. Here is the method: (§1) When developing any potentially oral-route pharmaceutical agent, the denaturing and pepsin-rich environment of the stomach must be considered. The stability of HM-10/10 was tested in simulated gastric fluid (SGF) and simulated intestinal fluid (SIF) over 120 min. […] Samples were tested at 2 μM.
(§2) For the HM-10/10 stability assay in simulated gastric and intestinal fluids, propantheline was used to confirm retention time and carbutamide was used as the internal standard for calculations.

Series [11] is described as follows: Stability in simulated intestinal fluid (SIF). Format: in vitro ADME. The settings on record: simulated intestinal fluid (SIF), SIF pH 5.5. The protocol:
as §1, §2

A further series has as its target CYP2C9 (Homo sapiens, UniProt P11712).
Series [12] is described as follows: Stability in potassium phosphate buffers of pH 1.3, 5.5 and 7.4. The settings on record: potassium phosphate buffer; for remaining at 1 h, 2 µM: read-out: % Remaining at 60 min. The format is physicochemical. The protocol: The stability of HM-10/10 under varying pH conditions was determined by adding the compound to potassium phosphate buffers of pH 1.3 (acidic), 5.5 (slightly acidic), and 7.4 (physiological pH), with 7-Ethoxycoumarin used as a control article. Under acidic and slightly acidic conditions, the half-life of HM-10/10 could not be determined, as the percentage of HM-10/10 was higher at the end of the time course than at the beginning (Table 3, Figure 3). […] Samples were tested at 2 µM.
The instrument was equipped with an electrospray ionization source (600 °C) operated in the positive-ion mode.

The next series concerns the target T2, CYP2C8 (Homo sapiens, UniProt P10632).
T2 sequence (P10632 1-490): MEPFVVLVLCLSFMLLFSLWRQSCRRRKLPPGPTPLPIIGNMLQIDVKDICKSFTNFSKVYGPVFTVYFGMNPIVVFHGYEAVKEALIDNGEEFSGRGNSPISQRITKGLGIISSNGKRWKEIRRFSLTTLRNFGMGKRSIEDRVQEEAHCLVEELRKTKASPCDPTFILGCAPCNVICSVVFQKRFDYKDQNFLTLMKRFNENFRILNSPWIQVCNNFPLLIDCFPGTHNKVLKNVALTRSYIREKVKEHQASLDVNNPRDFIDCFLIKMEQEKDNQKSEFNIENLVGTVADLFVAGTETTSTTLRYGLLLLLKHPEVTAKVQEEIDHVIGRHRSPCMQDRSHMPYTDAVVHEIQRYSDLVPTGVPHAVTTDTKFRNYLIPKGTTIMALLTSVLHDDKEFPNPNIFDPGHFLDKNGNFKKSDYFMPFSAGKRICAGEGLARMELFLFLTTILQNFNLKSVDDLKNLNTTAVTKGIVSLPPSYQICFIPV
The experiment in a line: CYP450 time-dependent inhibition, CYP2C8, pooled human liver microsomes. The settings on record: Amodiaquine (2C8). (Liver microsomes are a subcellular fraction often used to study metabolism.)

[13] abbreviates: both, human, microsomes, pH 7.4.

Like-named read-outs stand apart in the source and are kept apart here.

T1 sequence (P10635 whole entry): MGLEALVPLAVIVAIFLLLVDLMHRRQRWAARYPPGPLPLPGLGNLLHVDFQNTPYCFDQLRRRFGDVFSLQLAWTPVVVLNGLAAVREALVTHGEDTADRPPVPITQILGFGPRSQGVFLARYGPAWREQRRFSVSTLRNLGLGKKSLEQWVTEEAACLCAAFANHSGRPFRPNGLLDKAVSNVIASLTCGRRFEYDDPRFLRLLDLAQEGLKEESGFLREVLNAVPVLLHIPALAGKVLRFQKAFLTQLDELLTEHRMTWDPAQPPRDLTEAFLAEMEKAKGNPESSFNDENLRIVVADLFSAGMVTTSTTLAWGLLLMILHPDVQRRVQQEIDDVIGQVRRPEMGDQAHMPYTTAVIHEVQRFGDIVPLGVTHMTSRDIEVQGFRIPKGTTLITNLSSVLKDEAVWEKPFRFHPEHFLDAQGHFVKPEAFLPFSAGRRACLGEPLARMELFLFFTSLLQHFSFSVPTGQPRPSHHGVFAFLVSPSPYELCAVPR
CYP2C9, sequence (P11712 whole entry): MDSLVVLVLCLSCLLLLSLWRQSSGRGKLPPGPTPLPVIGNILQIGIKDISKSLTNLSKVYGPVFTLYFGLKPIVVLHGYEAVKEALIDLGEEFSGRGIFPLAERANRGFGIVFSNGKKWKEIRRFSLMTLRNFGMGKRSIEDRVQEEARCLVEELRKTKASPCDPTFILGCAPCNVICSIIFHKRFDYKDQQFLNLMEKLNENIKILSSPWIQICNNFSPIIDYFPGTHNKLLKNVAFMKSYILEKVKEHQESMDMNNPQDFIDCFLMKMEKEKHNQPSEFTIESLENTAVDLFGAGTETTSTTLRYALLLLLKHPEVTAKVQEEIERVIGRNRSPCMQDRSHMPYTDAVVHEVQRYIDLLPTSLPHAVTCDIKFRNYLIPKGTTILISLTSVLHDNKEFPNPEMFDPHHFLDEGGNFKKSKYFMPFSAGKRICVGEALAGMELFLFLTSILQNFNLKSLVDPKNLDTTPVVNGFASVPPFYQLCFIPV

The term inhibition denotes the share of the control response that was lost under treatment. Consider `Fc1ccc([C@@H]2CCNC[C@H]2COc2ccc3c(c2)OCO3)cc1` [Paroxetine, paroxetine], for which, at CYP2D6 [1], the “Comments (time-dependent inhibition)” value is reported as “+TDI”. Also, the inhibition at 30 min, 50 µM turned out to be 99% on CYP2D6 [2] (pH 7.4, % Inhibition at 50 µM No PI + NADPH); 99.1% at CYP2D6 [2] (pH 7.4, % Inhibition at 50 µM No PI − NADPH); 100% at CYP2D6 [2] (pH 7.4, % Inhibition at 50 µM PI + NADPH); 99% against CYP2D6 [2] (pH 7.4, % Inhibition at 50 µM PI − NADPH).
The half-life is the time in which the quantity being followed falls by half. Regarding `CC[C@H](C)C(=O)O[C@H]1C[C@@H](C)C=C2C=C[C@H](C)[C@H](CC[C@@H]3C[C@@H](O)CC(=O)O3)[C@H]21` [Lovastatin, lovastatin], the half-life at 2 µM in “in vitro [3]” was 10.8 h; in “in vitro [4]”, 0.138 h; in the series “in vitro [5]” it was 7.42 h; in the series “in vitro [6]”, more than 2 h; in the series “in vitro [7]”, 0.24 h. In addition, the fraction remaining at 2 h, 2 µM was 81.1% in the series “in vitro [3]”, 73.2% in the series “in vitro [5]” and 115% in “in vitro [6]”.
For the compound `CCC1(c2ccccc2)C(=O)NC(=O)NC1=O` [Phenobarbital, phenobarbital, reference compound], in the series with CYP2B6 [8], the “Fold Increase (Enzyme Activity) Lot HH1086” value was determined as 11.8 fold, the “Fold Increase (Enzyme Activity) Lot HH1142” value stood at 21.4 fold and the “Fold Increase (Enzyme Activity) Lot HH1144” value worked out at 7.23 fold. Further, in the series with CYP2B6 [8] (mean of three lots), the “Fold Increase (Enzyme Activity) Mean” value was 13.5 fold. Moreover, in the series on CYP2B6 [9], the “Comments (mRNA induction)” value was “Induced as Expected”, the “Fold Increase (mRNA Expression) Lot HH1086” value is reported as 15.5 fold, the “Fold Increase (mRNA Expression) Lot HH1142” value stood at 22.3 fold and the “Fold Increase (mRNA Expression) Lot HH1144” value turned out to be 7.54 fold. The “Fold Increase (mRNA Expression) Mean of 3 Lots” value in the series with CYP2B6 [9] was 15.1 fold.
For the compound `CC(C)[N+](C)(CCOC(=O)C1c2ccccc2Oc2ccccc21)C(C)C` [Propantheline, propantheline], the half-life at 2 µM in series [10] was 8.7 h; in [11] it was 13.6 h; in “in vitro [3]” it was 0.76 h; in the series “in vitro [4]” it was 77.5 h; in the series “in vitro [5]”, 4.1 h; in the series “in vitro [6]”, 11.1 h. Besides, the half-life at 2 µM in “in vitro [7]” was 1.17 h. Besides, the share remaining at 2 h, 2 µM in “in vitro [3]” stood at 13.3%; in the series “in vitro [4]”, 95%; in the series “in vitro [5]” it was 65.7%; in the series “in vitro [6]”, 80.3%; in “in vitro [7]”, 27%.
As a reminder, the % Inhibition is the change of the read-out against control, counted positive when it falls. As for `Nc1ccc(S(=O)(=O)Nc2ccnn2-c2ccccc2)cc1` [Sulfaphenazole, sulfaphenazole], at CYP2C9, the “Comments (time-dependent inhibition)” value was “No TDI”. Also, on CYP2C9 (setting [13]), the “% Inhibition at 50 µM No PI + NADPH” value is 99.2%, the “% Inhibition at 50 µM No PI − NADPH” value is listed as 99.1%, the “% Inhibition at 50 µM PI + NADPH” value stood at 99.7% and the “% Inhibition at 50 µM PI − NADPH” value came out at 99.9%.
For the compound `CCOc1ccc2ccc(=O)oc2c1` [7-Ethoxycoumarin, reference compound], the half-life at 2 µM was 13.5 h in [12] (Acidic (pH 1.3)), 11.8 h in [12] (Physiological pH (pH 7.4)) and 16.5 h in series [12] (Slightly Acidic (pH 5.5)). In addition, the values for the fraction remaining at 1 h, 2 µM in series [12] (Acidic (pH 1.3)), in [12] (Physiological pH (pH 7.4)) and in series [12] (Slightly Acidic (pH 5.5)) were 89%, 87.5% and 90%, respectively.
Regarding `O=c1c(O)c(-c2ccc(O)c(O)c2)oc2cc(O)cc(O)c12` [Quercetin, quercetin], the “Comments (time-dependent inhibition)” value at CYP2C8 was “No TDI”. On CYP2C8 (50 µM, No PI + NADPH), the “% Inhibition at 50 µM No PI + NADPH” value was 100.5%. Besides, the “% Inhibition at 50 µM No PI − NADPH” value at CYP2C8 (50 µM, No PI − NADPH) amounted to 100.9%. Further, the “% Inhibition at 50 µM PI + NADPH” value on CYP2C8 (50 µM, PI + NADPH) is on record as 100.8%. Besides, the “% Inhibition at 50 µM PI − NADPH” value at CYP2C8 (50 µM, PI − NADPH) worked out at 100.5%.

The values are drawn from publication PMC10298982, “Stability Characterization of the Novel Anti-Cancer HM-10/10 HDL-Mimetic Peptide” (International Journal of Molecular Sciences, 2023).
